Measurements published in patent US12187662B2, “FOXM1 inhibitor compositions and methods of using the same” (The Board of Trustees of the University of Illinois, priority 2018, dated 2025).
“Also recorded” adds a separate entry of the source. Read-outs that look alike come from different tables or passages of the source.

Tests used:
DT22 cells = experiment: Cell proliferation assay (WST-1), DT22; format: cell-based, human
Procedure: (§1) All cells were tested for mycoplasma using Real-Time PCR Mycoplasma Detection Kit (Akron Biotech, Boca Raton, FL).
(§2) All assays were performed in triplicate.

breast cancer cell lines = experiment: Proliferation of breast cancer cell lines (panel, line not specified); format: cell-based, human; conditions: for IC50: read-out: IC50 for inhibition of proliferation of breast cancer cell lines
Procedure: as §1, §2

MDA-MB-231 cells = experiment: Cell proliferation assay (WST-1), MDA-MB-231; format: cell-based, human; conditions: inhibition of cell proliferation; read-out: IC50 MDA-MB-231
Procedure: as §1, §2

[1] = Pharmacokinetic studies in mice after single s.c. or oral dose; conditions: mice; for Blood levels after oral administration: 40 mg/kg oral
Procedure: For s.c. injection, each compound was dissolved in DMSO and then mixed with corn oil for a total injection volume of 100 μL (10% DSMO+90% corn oil) per mouse. For oral gavage, compounds were administered in a 200 μL formulation of 9/0.5/0.5/90 parts of PEG400/Tween80/Povidone/0.5% Carboxymethylcellulose. […] Compounds were quantified by LC-MS/MS at the University of Illinois Metabolomics Core Facility. The data were fitted to a non-compartment model.

MCF7 cells = experiment: Cell proliferation assay (WST-1), MCF7; format: cell-based, human; conditions: read-out: IC50 MCF7
Procedure: as §1, §2

FOXM1 protein = target: T1, FOXM1 protein (Homo sapiens, UniProt Q08050); experiment: Competitive binding of inhibitors to FOXM1 by tr-FRET (Fl-NB-72 probe); conditions: tr-FRET competition with Fl-NB-72; Ki calculated from IC50 (Cheng-Prusoff)
T1 construct: a terbium donor was attached to purified full length FOXM1 through a streptavidin-biotin linker
T1 sequence (Q08050 1-763): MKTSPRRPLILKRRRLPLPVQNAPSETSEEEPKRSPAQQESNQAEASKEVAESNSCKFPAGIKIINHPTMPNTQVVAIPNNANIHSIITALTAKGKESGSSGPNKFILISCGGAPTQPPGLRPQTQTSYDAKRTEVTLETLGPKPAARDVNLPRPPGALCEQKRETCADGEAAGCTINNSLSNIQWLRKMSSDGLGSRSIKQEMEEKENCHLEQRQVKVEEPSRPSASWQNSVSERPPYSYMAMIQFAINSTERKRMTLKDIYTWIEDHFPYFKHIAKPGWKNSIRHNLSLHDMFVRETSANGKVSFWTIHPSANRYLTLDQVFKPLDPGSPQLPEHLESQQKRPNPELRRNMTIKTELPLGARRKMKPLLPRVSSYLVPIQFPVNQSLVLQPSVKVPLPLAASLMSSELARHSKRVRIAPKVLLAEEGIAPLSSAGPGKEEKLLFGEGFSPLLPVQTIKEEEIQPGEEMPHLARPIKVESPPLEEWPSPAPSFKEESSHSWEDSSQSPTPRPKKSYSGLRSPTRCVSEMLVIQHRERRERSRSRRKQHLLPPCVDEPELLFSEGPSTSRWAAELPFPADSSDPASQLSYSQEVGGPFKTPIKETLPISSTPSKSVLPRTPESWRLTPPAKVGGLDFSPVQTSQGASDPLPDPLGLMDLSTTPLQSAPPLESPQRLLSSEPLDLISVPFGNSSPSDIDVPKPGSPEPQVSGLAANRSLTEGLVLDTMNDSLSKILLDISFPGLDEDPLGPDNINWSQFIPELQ
Procedure: Competitive binding assays of FOXM1 inhibitor binding to FOXM1 by tr-FRET were conducted. All tr-FRET experiments used FRET buffer (20 mM Tris, pH 7.5, 50 mM NaCl, 0.01% NP-40 detergent, 10% glycerol) with 0.3 mg/ml ovalbumin and 0.1 mM butylated hydroxy-anisole added fresh daily. Solutions of the protein, fluorescent probe and inhibitor dilutions were prepared at 3× the final concentrations, the final dilution taking place as they were mixed together on the microtiter plate.
Final concentrations were 10^-5M to 10^-9M, with the last point being buffer only, no inhibitor. Fluorescein-NB-72 (Fl-NB-72) was prepared at 1 mM in DMF and stored at −20° C. It was diluted into plain FRET buffer to give 100 nM in the assay.
Incubations were done in duplicate on black Molecular Devices 96-well microtiter plates. […] To this were added 5 μL of the inhibitor dilutions, mixed and incubated, in the dark, at room temperature, for 1 h. […] Diffusion-enhanced FRET was determined by a parallel incubation without biotin-FOXM1 and subtracted as a background signal. Graphs were prepared using Graph Pad/Prism 4.

FOXM1 and ERα = experiment: Cellular level of FOXM1 and ERα (Western blot, mRNA); format: cell-based, human; conditions: Western blot over time
Procedure: In-cell Western and Western blot assays Cells were cultured in 96-well plates at 3000 cells/well, and treated with compounds for the times indicated. Cells were washed twice in PBS, fixed with 4% formaldehyde (Fisher Scientific) solution in PBS, permeabilized in 0.1% Triton X-100 in PBS, blocked with Odyssey Blocking Buffer (LI-COR), and incubated with FOXM1 antibody (GeneTex, 102170) rabbit HC-20 ERa antibody (Santa Cruz, Cat #SC-543) or mouse F10 ERa antibody (Santa Cruz, Cat #SC8002) at 4 C overnight. Both IRDye 800 CW goat anti-rabbit secondary antibody (LI-COR, Cat #926-32211) and Cell Tag 700 (LI-COR, Cat #926-41090) were diluted (1:600) for incubation with cells. Plates were washed and staining signals were quantified and normalized with Cell Tag signals (to control for any differences in cell number per well) using LI-COR Odyssey infrared imaging system. Fold changes in protein levels were calculated relative to the vehicle treated WT samples. Results are the average±SD from at least three independent experiments, each performed with 4 wells per treatment condition. […]
RNA isolation and real-time PCR Total RNA was isolated using TRIzol (Invitrogen) and reverse transcribed using […] reverse transcriptase (New England BioLabs). […] Relative mRNA levels of genes were normalized to the housekeeping gene 36B4, and fold change calculated relative to the vehicle treated samples. […]

[2] = after IV administration; cited from earlier work
[3] = test system: MDA-MB-453 breast cancer cells; experiment: Cell proliferation, MDA-MB-453; format: cell-based, human; conditions: inhibition of cell proliferation
Procedure: (§3) Cell lines and cell culture methods MCF7 and other breast cancer cell lines were obtained from the ATCC and were maintained and cultured as described (Bergamaschi et al., Breast Cancer Res., 2014, 16:436; Madak-Erdogan et al., Mol. Syst. Biol., 2013, 9:676; Zhao et al., Cancer Res., 2017, 77:5602-13). DT22 cells were derived from a human triple negative invasive ductal breast carcinoma and were grown in culture as described (Drews-Elger et al., Breast cancer research and treatment, 2014, 144:503-17). All cells were tested for mycoplasma using Real-Time PCR Mycoplasma Detection Kit (Akron Biotech, Boca Raton, FL).
(§4) Cell proliferation assay WST-1 assay (Roche, Basel, Switzerland) was used to quantify cell viability as described (Gong et al., Mol. Cell Endocrinol., 2016, 437:190-200). Absorbance was measured at 450 nm using a VICTOR X5 PerkinElmer 2030 Multilabel Plate Reader. All assays were performed in triplicate.

[4] = test system: FOXM1 target genes in DT22 cells; experiment: FOXM1 target gene expression by qRT-PCR, DT22; format: cell-based, human; conditions: DT22, 24 h, at IC50 concentration
Source text: RNA was extracted from cells and expression of different genes was monitored by qRT-PCR. Assays were run in triplicate. Values are mean±SEM. *, p<0.05; **, p<0.01; ***, p<0.001. RNA isolation and real-time PCR Total RNA was isolated using TRIzol (Invitrogen) and reverse transcribed using […] reverse transcriptase (New England BioLabs). […] Relative mRNA levels of genes were normalized to the housekeeping gene 36B4, and fold change calculated relative to the vehicle treated samples. Results are the average±SD from at least two independent experiments carried out in triplicate. Primer sequences for the genes studied were obtained from the Harvard Primer Bank. Sequences are available on their website.

[5] = test system: FOXM1 target genes in MCF7 cells; experiment: FOXM1 target gene expression by qRT-PCR, MCF7; format: cell-based, human; conditions: MCF7, 24 h, at IC50 concentration
Procedure: RNA was extracted from cells and expression of different genes was monitored by qRT-PCR. Assays were run in triplicate. Values are mean±SEM. *, p<0.05; **, p<0.01; ***, p<0.001. RNA isolation and real-time PCR Total RNA was isolated using TRIzol (Invitrogen) and reverse transcribed using […] reverse transcriptase (New England BioLabs). Real-time PCR was performed using SYBRgreen PCR Master Mix (Roche) as described (Bergamaschi et al., Breast Cancer Res., 2014, 16:436). Relative mRNA levels of genes were normalized to the housekeeping gene 36B4, and fold change calculated relative to the vehicle treated samples. Results are the average±SD from at least two independent experiments carried out in triplicate. Primer sequences for the genes studied were obtained from the Harvard Primer Bank. Sequences are available on their website.

[6] = test system: DT22 triple negative human breast tumor xenografts; experiment: DT22 triple negative breast tumor xenografts in NSG mice; format: in vivo, mouse
Procedure: In vivo breast cancer xenograft studies For examination of the growth of triple-negative DT22 breast tumors, intact female NOD/SCID-gamma (NSG) mice were used. DT-22 cells (1×10^6 cells/mouse) were injected s.c. into the right axial mammary gland. Mice received s.c. injection or oral gavage daily or every second or third day, as indicated, with vehicle or FOXM1 inhibitor compound, and tumor growth was monitored over time.

MCF7 xenograft tumors = experiment: MCF7 breast cancer xenografts in ovariectomized NSG mice; format: in vivo, mouse; conditions: 100 mg/kg s.c. daily
Procedure: For examination of the growth of ER-positive MCF7 xenograft tumors, female NSG mice were ovariectomized, and 2 weeks after ovariectomy, animals were supplemented with 0.36 mg E2-pellets (60-day release, Innovative Research of America) to support ER+ tumor growth. Cell suspensions of wild type MCF7 cells (1×10^6 cells/mouse) were injected subcutaneously (sc) in the right axial mammary gland and when tumors reached 100-150 mm^3 in size, mice were randomized and received compound or control vehicle (corn oil) by s.c. injection or oral gavage (PEG400/PVP/Tween/CMC as Veh) at the frequency indicated and tumor volume (length><width 2/2) was monitored over time.

MCF10A cells = experiment: Cell proliferation, MCF10A (low FOXM1); format: cell-based, human; conditions: 6 days
Procedure: as §3, §4

[7] = inhibition of cell proliferation, read-out: IC50 DT-22
[8] = cell line not specified or several lines
[9] = inhibition of cell proliferation

## Nc1c(C(=O)Nc2ccc(F)cc2)sc2nc(-c3cccs3)cc(C(F)(F)F)c12 [FDI-6, reference compound]
DT22 cells; [7]
  IC50: 4.8 µM
Breast cancer cell lines; [8]
  IC50: 8 µM
MDA-MB-231 cells
  IC50: 4.5 µM
[1]; 20 mg/kg s.c.
  Blood levels after s.c. administration: very low blood levels
[1]; 40 mg/kg
  Blood levels after oral administration: undetectable
[1]; listed as FDI 6, 40 mg/kg
  Blood levels after oral administration: not detectable
MCF7 cells; [9]
  IC50: 3.1 µM
FOXM1 protein
  Ki: 0.143 µM
FOXM1 and ERα
  Cellular FOXM1 and ERα proteins: downregulated

## CCN(CC)c1ccc(C(c2ccc(N(CC)CC)cc2)=c2ccc3c(c2)CCc2ccccc2[N+]=3CCCN(C)C)cc1 [Imipramine Blue]
[2]
  half-life t1/2: 0.183 h

## Clc1ccc(C(=C2C3CC4CC(C3)CC2C4)c2ccc(OCCCCCCN3CCCC3)cc2)cc1 [NB-55, 1-(6-(4-((-((Z)-((5S,7S)-Adamantan-2-ylidene)(4-chlorophenyl)methyl)phenoxy)hexyl)pyrrolidine]
[3]
  IC50: 3 to 5 µM
DT22 cells; [7]
  IC50: 6 µM
[4]
  Expression of ATF3 (gene suppressed by FOXM1): increased
  Expression of FOXM1 stimulated target genes (FOXM1C, AURKB, CCNB1, PLK1): significantly reduced
Breast cancer cell lines; [8]
  IC50: 2 to 10 µM
Breast cancer cell lines; cells in culture
  Reduced potency in suppression of cell proliferation (versus salts): 5 fold
[1]; 40 mg/kg p.o.
  PK p.o. AUC0-48: 35.7 µM·h
  PK p.o. t1/2: 16.6 h
[1]; 40 mg/kg s.c.
  PK s.c. AUC0-48: 34.7 µM·h
  PK s.c. t1/2: 26.7 h
[5]
  Expression of ATF3 (gene suppressed by FOXM1): increased
  Expression of FOXM1 stimulated target genes (FOXM1C, AURKB, CCNB1, PLK1): significantly reduced
MCF7 cells; [9]
  IC50: 3 µM
[6]; 20 or 40 mg/kg (data not shown)
  Tumor suppression at lower doses: only marginally effective
[6]; daily s.c. or oral, 100 mg/kg
  Growth of DT22 tumor xenografts: effective tumor suppression; also recorded: very effectively suppressed
MCF7 xenograft tumors
  Growth of MCF7 E2-treated xenograft tumors: reduces; also recorded: reduced the growth
FOXM1 protein
  Ki: 0.23 µM
MCF10A cells
  Concentration for 50% suppression of proliferation in MCF10A versus cells with high and intermediate FOXM1: five times higher

## C=C(NC(=O)C(=C)NC(=O)c1csc(C2=N[C@@H]3c4csc(n4)[C@H]4NC(=O)c5csc(n5)[C@H]([C@](C)(O)[C@@H](C)O)NC(=O)[C@H]5CSC(=N5)/C(=C/C)NC(=O)[C@H]([C@@H](C)O)NC(=O)c5csc(n5)[C@]3(CC2)NC(=O)[C@H](C)NC(=O)C(=C)NC(=O)[C@H](C)NC(=O)[C@H]([C@@H](C)CC)N[C@@H]2C=Cc3c([C@H](C)O)cc(nc3[C@H]2O)C(=O)O[C@@H]4C)n1)C(N)=O [thiostrepton, reference compound]
DT22 cells; Homo sapiens, DT-22, inhibition of cell proliferation
  IC50: 3.6 µM
Breast cancer cell lines; Homo sapiens
  IC50: 2 µM
MCF7 cells; Homo sapiens, MCF7, inhibition of cell proliferation
  IC50: 1.4 µM
FOXM1 and ERα
  Cellular FOXM1 and ERα proteins: downregulated
